Results: EP1401829B1, “NOVEL HETEROCYCLIC ANTIBACTERIAL COMPOUNDS” (Microbiotix, Inc., priority 2001, dated 2002)
In brackets after ≈: the same amount, converted by molar mass. Where two headings read alike, the source gives them in different places.

Experiments:
[1] = target: T1, B. subtilis Pol IIIC (Bacillus subtilis, UniProt P13267); test: Polymerase IIIC (Pol IIIC) assay, determination of Ki values; assay type: biochemical; conditions: Ki (µM) Pol IIIC, assay in absence of dGTP or dATP; Ki is the concentration that reduces control polymerase IIIC activity by 50 percent
T1 construct: made in house
Procedure, shortened: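 Isolated B. subtilis Pol IIIC (0.025–0.06 units) run 10 min at 30°C in 30 mM Tris pH 7.5, 10 mM Mg acetate, 4 mM DTT, 20% glycerol. Substrates were 0.4 mg/ml activated calf thymus DNA, 25 µM dNTPs and 10 µM [3H]dTTP, with dGTP or dATP omitted per compound structure.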

[2] = system: B. subtilis; test: Minimal Inhibitory Concentration (MIC) determination, 96 well plates; assay type: cell-based, Bacillus subtilis; conditions: Bacillus subtilis; HBI medium, 16 to 18 hours at 37°C; read-out: MIC (µg/ml) B. subtilis
Procedure, shortened: (§1)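 Broth growth in Heart-Brain Infusion medium, seeded at about 1x10^5 CFU/ml, 16 to 18 hours at 37°C. Growth read at OD 600 nm as percent of untreated control; five concentrations per drug, five data points each, MIC reported in µg/ml.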

[3] = system: S. aureus; test: as above; assay type: cell-based, Staphylococcus aureus; conditions: Staphylococcus aureus, read-out: MIC (µg/ml) S. aureus
Procedure, shortened: (§2)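 Cultures seeded at approximately 1x10^5 CFU/ml in Heart-Brain Infusion medium were exposed to five compound concentrations, five data points each, for 16 to 18 hours at 37°C. Growth at OD 600 nm was expressed as percent of control, and MIC values are given in µg/ml.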

[4] = system: S.aureus (Smith); test: as above; assay type: cell-based, Staphylococcus aureus; conditions: Staphylococcus aureus
Procedure, shortened: as §1

[5] = system: E. fecalis; test: as above; assay type: cell-based, Enterococcus fecalis; conditions: Enterococcus; HBI medium, 16 to 18 hours at 37°C; read-out: MIC (µg/ml) E. fecalis
Procedure, shortened: as §1

[6] = system: E. fecium; test: as above; assay type: cell-based, Enterococcus fecium; conditions: Enterococcus; HBI medium, 16 to 18 hours at 37°C; read-out: MIC (µg/ml) E. fecium
Procedure, shortened: as §1

[7] = system: E. coli; test: as above; assay type: cell-based, Escherichia coli; conditions: Escherichia coli; HBI medium, 16 to 18 hours at 37°C; read-out: MIC (µg/ml) E. coli
Procedure, shortened: as §2

[8] = system: MRSA 1123; test: MIC against clinically relevant strains; assay type: cell-based; conditions: Staphylococcus aureus, methicillin resistant S. aureus strain
Method: (§3) The following methods were used to characterize representative compounds. Minimal Inhibitory Concentration (MIC) determinations. MIC values were determined in 96 well plates, with bacterial growth monitored at OD 600 nm in 200µl following an initial bacterial seeding at approximately 1x10^5 colony forming units (CFU)/ml. Each drug is evaluated at five concentrations, with five data points at each dilution. MIC values (µg/ml) were determined against actively growing cultures in Heart-Brain Infusion (HBI) medium. Cell growth in cultures supplemented with a test compound was calculated as a percent of control at OD 600 nm after 16 to 18 hours at 37°C. This plate format conserves test compound and provides precise, quantitative data with low standard deviation determinations. Polymerase IIIC (Pol IIIC) assay. DNA polymerase activity (or inhibition thereof) was measured in a 96-well plate format. B. subtilis Pol IIIC was isolated as described by Hammond and Brown (Protein Expr. Purif., 3: 65-70 (1992)). Each 25 µl assay contained 30 mM Tris, pH 7.5, 10 mM magnesium acetate, 4 mM dithiothreitol, 20% glycerol, with 25 µM dATP, dCTP, dGTP and 10 µM dTTP (^3H-labelled at 1.44 Ci/mmole) and 0.4 mg/ml activated calf thymus DNA as substrates, as described previously (see Barnes et al, op. cit). Assays were initiated by the addition of 0.025 to 0.06 units of enzyme 1 unit is the amount required to incorporate 250 pmoles of [^3H] dTMP in a standard assay), incubated for 10 minutes at 30°C and terminated by the addition of 200 µl of cold 10% trichloroacetic acid (TCA),10 mM sodium pyrophosphate. Precipitated labeled DNA was collected on glass fiber filter plates, washed, dried, and counted in a liquid scintillation counter. Determination of Ki values. DNA polymerase activity was measured in a 96-well plate format in the absence of dGTP or dATP, depending on the structure of the test compound. Each 25 µl assay contained 30 mM Tris, pH 7.5, 10 mM magnesium acetate, 4 mM dithiothreitol, 20% glycerol, with 25 µM dATP, dCTP, and 10 µM dTTP (^3H-labelled at 1.44 Ci/mmole) and 0.4 mg/ml activated calf thymus DNA as substrates, as described previously. To each well were added 2 µl of compound solution to give final concentrations ranging from 20 - 0.027 µg/ml in the assay. Assays were initiated by the addition of 0.025 to 0.06 units of enzyme (1 unit is the amount required to incorporate 250 pmoles of [^3H] dTMP in a standard assay), incubated for 10 minutes at 30 °C and terminated by the addition of 200 µl of cold 10% trichloroacetic acid, 10 mM sodium pyrophosphate. Precipitated labeled DNA was collected on glass fiber filter plates, washed, dried, and counted in a liquid scintillation counter. Ki is the concentration of test compound that reduces the control polymerase IIIC activity by 50 percent.
(§4) Compounds were also tested for antibacterial activity against certain clinically relevant strains, e.g., methicillin sensitive (MSSA) and methicillin resistant (MRSA) strains of Staphylococcus aureus.

[9] = system: MRSA1094; test: MIC against clinically relevant strains; assay type: cell-based; conditions: Staphylococcus aureus; methicillin resistant S. aureus strain
Method: as §3, §4

[10] = system: MRSA1132; test: MIC against clinically relevant strains; assay type: cell-based; conditions: Staphylococcus aureus; methicillin resistant S. aureus strain
Method: as §3, §4

[11] = system: MSSA108; test: MIC against clinically relevant strains; assay type: cell-based; conditions: Staphylococcus aureus; methicillin sensitive S. aureus strain
Method: as §3, §4

[12] = HBI medium, 16 to 18 hours at 37°C
[13] = HBI medium, 16 to 18 hours at 37°C, read-out: MIC (µg/ml) S.aureus (Smith)
[14] = table of MSSA/MRSA strains, read-out: MIC (µg/ml) S. aureus (Smith)

T1 sequence (P13267 whole entry): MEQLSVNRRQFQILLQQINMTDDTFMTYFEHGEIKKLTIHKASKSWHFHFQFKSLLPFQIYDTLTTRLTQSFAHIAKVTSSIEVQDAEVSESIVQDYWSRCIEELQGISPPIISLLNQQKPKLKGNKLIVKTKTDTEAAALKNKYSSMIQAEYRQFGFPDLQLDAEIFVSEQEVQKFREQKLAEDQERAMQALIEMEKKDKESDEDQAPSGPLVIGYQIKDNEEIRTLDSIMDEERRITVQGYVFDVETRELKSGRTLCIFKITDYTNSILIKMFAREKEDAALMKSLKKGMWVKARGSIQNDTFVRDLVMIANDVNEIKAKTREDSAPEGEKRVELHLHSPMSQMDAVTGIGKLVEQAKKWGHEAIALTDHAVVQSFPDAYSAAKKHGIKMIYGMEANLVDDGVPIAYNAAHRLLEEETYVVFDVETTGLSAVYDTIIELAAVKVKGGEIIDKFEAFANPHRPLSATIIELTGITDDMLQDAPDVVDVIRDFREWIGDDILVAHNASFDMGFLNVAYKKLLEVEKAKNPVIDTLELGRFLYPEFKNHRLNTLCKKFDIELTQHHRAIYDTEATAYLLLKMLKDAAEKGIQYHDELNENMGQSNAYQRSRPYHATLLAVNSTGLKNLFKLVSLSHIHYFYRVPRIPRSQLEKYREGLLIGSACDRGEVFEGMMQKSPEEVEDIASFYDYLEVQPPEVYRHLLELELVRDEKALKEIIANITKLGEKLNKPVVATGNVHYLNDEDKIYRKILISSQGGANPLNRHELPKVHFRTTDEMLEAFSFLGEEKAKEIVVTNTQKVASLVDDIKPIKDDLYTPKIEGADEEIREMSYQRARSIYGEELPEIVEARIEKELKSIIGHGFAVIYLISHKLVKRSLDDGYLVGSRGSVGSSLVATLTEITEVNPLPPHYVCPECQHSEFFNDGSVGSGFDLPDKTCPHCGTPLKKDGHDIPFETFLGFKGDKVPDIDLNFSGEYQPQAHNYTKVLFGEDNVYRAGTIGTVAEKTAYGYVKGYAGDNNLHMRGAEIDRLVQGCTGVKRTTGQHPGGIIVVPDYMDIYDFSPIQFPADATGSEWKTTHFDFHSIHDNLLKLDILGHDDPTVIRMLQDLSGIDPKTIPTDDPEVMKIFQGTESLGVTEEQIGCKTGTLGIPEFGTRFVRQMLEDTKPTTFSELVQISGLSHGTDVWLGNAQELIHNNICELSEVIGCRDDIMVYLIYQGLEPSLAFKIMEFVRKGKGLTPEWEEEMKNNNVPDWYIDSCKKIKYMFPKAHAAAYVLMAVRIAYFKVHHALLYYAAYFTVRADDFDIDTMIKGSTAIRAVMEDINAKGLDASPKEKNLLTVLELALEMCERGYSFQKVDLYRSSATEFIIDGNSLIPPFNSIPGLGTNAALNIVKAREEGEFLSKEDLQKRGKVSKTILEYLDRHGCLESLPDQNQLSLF

SMILES | Ki [1] | MIC [2] | MIC [3, 12] | MIC ([3]; table of MSSA/MRSA strains) | MIC [4, 13] | MIC [4, 14] | MIC [5] | MIC [6] | MIC [7] | MIC [8] | MIC [9] | MIC [10] | MIC [11]
CCc1cc(Nc2cc(=O)n(CCCCN3CCN(c4c(F)cc5c(=O)c(C(=O)O)cn(CC)c5c4Cl)CC3)c(=O)[nH]2)ccc1C [Compound 5, 3-{4-[1-(1-ethyl-3-carboxy-4-oxo-6-fluoro-8-chloro-7-quinolyl)-4-piperazinyl]butyl}-6-(3-ethyl-4-methylanilino)uracil] | 0.016 µM | 0.078 µg/mL (≈ 0.119 µM) | 0.156 µg/mL (≈ 0.239 µM) | 0.156 µg/mL (≈ 0.239 µM) | 0.156 µg/mL (≈ 0.239 µM) | 0.156 µg/mL (≈ 0.239 µM) | 1.25 µg/mL (≈ 1.91 µM) | 2.5 µg/mL (≈ 3.83 µM) | 10 µg/mL (≈ 15.3 µM) | 0.625 µg/mL (≈ 0.957 µM) | 0.625 µg/mL (≈ 0.957 µM) | 0.625 µg/mL (≈ 0.957 µM) | 0.625 µg/mL (≈ 0.957 µM)
CCc1cc(Nc2cc(=O)n(CCCCN3CCN(c4nc5c(cc4F)c(=O)c(C(=O)O)cn5CC)CC3)c(=O)[nH]2)ccc1C [Compound 6, 3-{4-[1-(1-ethyl-3-carboxy-4-oxo-6-fluoro-8-aza-7-quinolyl)-4-piperazinyl]butyl}-6-(3-ethyl-4-methylanilino)uracil] | 0.018 µM | 0.156 µg/mL (≈ 0.252 µM) | 0.625 µg/mL (≈ 1.01 µM) | 0.625 µg/mL (≈ 1.01 µM) | 0.625 µg/mL (≈ 1.01 µM) | 0.625 µg/mL (≈ 1.01 µM) | 1.25 µg/mL (≈ 2.02 µM) | 1.25 µg/mL (≈ 2.02 µM) | > 20 µg/mL | 0.625 µg/mL (≈ 1.01 µM) | 1.25 µg/mL (≈ 2.02 µM) | 0.625 µg/mL (≈ 1.01 µM) | 0.625 µg/mL (≈ 1.01 µM)
Cc1ccc(Nc2cc(=O)n(CCCCN3CCN(c4cc5c(cc4F)c(=O)c(C(=O)O)cn5C4CC4)C[C@H]3C)c(=O)[nH]2)cc1C [Compound 96, (R)-3-{4-[1-(1-cyclopropyl-3-carboxy-4-oxo-6-fluoro-7-quinolyl)-3-methyl-4-piperazinyl]butyl}-6-(3,4-dimethylanilino)uracil] | 0.019 µM | 0.156 µg/mL (≈ 0.247 µM) | 0.625 µg/mL (≈ 0.991 µM) |  | 0.313 µg/mL (≈ 0.496 µM) |  | 0.625 µg/mL (≈ 0.991 µM) | 0.625 µg/mL (≈ 0.991 µM) | 5 µg/mL (≈ 7.93 µM) |  |  |  | 
Cc1ccc(Nc2cc(=O)n(CCCCN3CCN(c4cc5c(cc4F)c(=O)c(C(=O)O)cn5C4CC4)C[C@@H]3C)c(=O)[nH]2)cc1C [Compound 97, (S)-3-{4-[1-(1-cyclopropyl-3-carboxy-4-oxo-6-fluoro-7-quinolyl)-3-methyl-4-piperazinyl]butyl}-6-(3,4-dimethylanilino)uracil] | 0.037 µM | 0.235 µg/mL (≈ 0.373 µM) | 1.25 µg/mL (≈ 1.98 µM) |  | 0.625 µg/mL (≈ 0.991 µM) |  | 0.625 µg/mL (≈ 0.991 µM) | 1.25 µg/mL (≈ 1.98 µM) | 40 µg/mL (≈ 63.4 µM) |  |  |  | 
Cc1ccc(Nc2cc(=O)n(CCCCN3CCN(c4c(F)cc5c(=O)c(C(=O)O)cn(C6CC6)c5c4F)C[C@H]3C)c(=O)[nH]2)cc1C [Compound 98, (R)-3-{4-[1-(1-cyclopropyl-3-carboxy-4-oxo-6,8-difluoro-7-quinolyl)-3-methyl-4-piperazinyl]butyl}-6-(3,4-dimethylanilino)uracil] | 0.029 µM | 0.313 µg/mL (≈ 0.482 µM) | 1.25 µg/mL (≈ 1.93 µM) |  | 0.625 µg/mL (≈ 0.963 µM) |  | 1.25 µg/mL (≈ 1.93 µM) | 1.25 µg/mL (≈ 1.93 µM) | 5 µg/mL (≈ 7.71 µM) |  |  |  | 
